Measurements from patent US20060069132A1, “Azolecarboxamide herbicides” (priority 2004, published 2006).

How the values were obtained:
Surinam grass = assay: Test B pre-/postemergence herbicide test; format: in vivo, Urochloa decumbens
In short: (§1)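 Seeds were planted and treated preemergence with compounds formulated in a non-phytotoxic solvent mixture containing surfactant, while plants at the 1- to 4-leaf stage (2 to 18 cm) received postemergence sprays. Flooded paddy plants were grown to the 2-leaf stage. After 13 to 15 days in a greenhouse, injury was visually rated 0–100 against untreated controls.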

cocklebur = assay: Test B pre-/postemergence herbicide test; format: in vivo, Xanthium strumarium
In short: (§2)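 Flooded paddy rice and barnyardgrass were treated at the 2-leaf stage; upland plantings received compound either on sown seed or on 1- to 4-leaf seedlings. All were kept 13–15 days in a greenhouse and scored visually, 0–100, relative to untreated plants.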

corn = assay: Test B pre-/postemergence herbicide test; format: in vivo, Zea mays
In short: as §1

giant foxtail = assay: Test B pre-/postemergence herbicide test; format: in vivo, Setaria faberi
In short: as §1

lambsquarters = assay: Test B pre-/postemergence herbicide test; format: in vivo, Chenopodium album
In short: as §1

morningglory = assay: Test B pre-/postemergence herbicide test; format: in vivo, Ipomoea coccinea
In short: as §2

pigweed = assay: Test B pre-/postemergence herbicide test; format: in vivo, Amaranthus retroflexus
In short: as §1

velvetleaf = assay: Test B pre-/postemergence herbicide test; format: in vivo, Abutilon theophrasti
In short: as §1

blackgrass = assay: Test B postemergence herbicide test; format: in vivo, Alopecurus myosuroides
In short: (§3)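 After treating 2-leaf paddy plants or 2–18 cm postemergence plants (1 to 4 leaves) with formulated chemical, researchers kept them in a greenhouse for 13–15 days. Effects were judged visually versus controls: 0 indicates none, 100 total control.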

wheat = assay: Test B postemergence herbicide test; format: in vivo, Triticum aestivum; set-up: key to Wheat plant response rating: 0 = no effect, 100 = complete control
In short: (§4)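 Formulated test chemicals went onto postemergence plants measuring 2 to 18 cm, at one to four leaves. For the paddy assay, species had reached two leaves. Scoring took place 13–15 days later by eye, relative to untreated plants, using 0 for no effect up to 100 for full control.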

wild oat = assay: Test B postemergence herbicide test; format: in vivo, Avena fatua
In short: as §4

rice = assay: Test B flooded paddy test; format: in vivo, Oryza sativa; details: 1000 g ai/ha, scale 0 to 100 (0 no effect, 100 complete control)
In short: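 Visual ratings, 0 (no effect) to 100 (complete control), made versus controls after 13–15 d greenhouse. Paddy plants treated at 2-leaf stage; postemergence plants at 1- to 4-leaf stage, 2–18 cm tall.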

[1] = system: small flower umbrella sedge; assay: Test B flooded paddy test; format: in vivo, Cyperus difformis; details: 1000 g ai/ha, scale 0 to 100 (0 no effect, 100 complete control)
In short: as §3

ducksalad = assay: Test B flooded paddy test; format: in vivo, Heteranthera limosa; details: 1000 g ai/ha, scale 0 to 100 (0 no effect, 100 complete control)
In short: as §3

barnyardgrass = assay: Test B flooded paddy test; format: in vivo, Echinochloa crus-galli; details: 1000 g ai/ha, scale 0 to 100 (0 no effect, 100 complete control)
In short: as §3

[2] = 125 g ai/ha, 0 = no effect, 100 = complete control, preemergence
[3] = 125 g ai/ha, visual rating, scale 0 (no effect) to 100 (complete control), postemergence
[4] = 500 g ai/ha, visual rating, 0 = no effect, 100 = complete control, preemergence
[5] = postemergence, 500 g ai/ha, scale 0 to 100, 0 is no effect, 100 is complete control
[6] = 125 g ai/ha; 0 = no effect, 100 = complete control; preemergence
[7] = 125 g ai/ha; visual rating, scale 0 (no effect) to 100 (complete control); postemergence
[8] = 500 g ai/ha; visual rating, 0 = no effect, 100 = complete control; preemergence
[9] = postemergence, 500 g ai/ha; scale 0 to 100, 0 is no effect, 100 is complete control
[10] = 500 g ai/ha, visual rating 0-100, 0 no effect, 100 complete control, preemergence
[11] = postemergence, 125 g ai/ha, visual rating, scale 0 (no effect) to 100 (complete control)
[12] = postemergence, 500 g ai/ha, visual rating, scale 0 (no effect) to 100 (complete control)
[13] = preemergence, 125 g ai/ha, 0 to 100 scale, 0 is no effect, 100 is complete control
[14] = 500 g ai/ha; visual rating 0-100, 0 no effect, 100 complete control; preemergence
[15] = postemergence, 125 g ai/ha; visual rating, scale 0 (no effect) to 100 (complete control)
[16] = postemergence, 500 g ai/ha; visual rating, scale 0 (no effect) to 100 (complete control)
[17] = preemergence, 125 g ai/ha; 0 to 100 scale, 0 is no effect, 100 is complete control
[18] = 125 g ai/ha, 0 is no effect, 100 is complete control, preemergence
[19] = Postemergence, 500 g ai/ha, scale 0 (no effect) to 100 (complete control)
[20] = 125 g ai/ha; 0 is no effect, 100 is complete control; preemergence

## CCOC(=O)c1cccc(NC(=O)c2cc(C3(C)CC3)nn2CC)c1 [Compound 295]
Surinam grass; [2]
  Surinam Grass plant response rating (0 to 100 scale): 0
Surinam grass; [3]
  Surinam Grass plant response rating: 50
Surinam grass; [4]
  Plant response rating, Surinam Grass: 20
Surinam grass; [5]
  Surinam Grass plant response rating: 60
cocklebur; [6]
  Cocklebur plant response rating (0 to 100 scale): 0
cocklebur; [7]
  Cocklebur plant response rating: 40
cocklebur; [8]
  Plant response rating, Cocklebur: 0
cocklebur; [9]
  Cocklebur plant response rating: 90
corn; [6]
  Corn plant response rating (0 to 100 scale): 0
corn; [7]
  Corn plant response rating: 10
corn; [8]
  Plant response rating, Corn: 10
corn; [9]
  Corn plant response rating: 20
Giant foxtail; [6]
  Foxtail, Giant plant response rating (0 to 100 scale): 10
Giant foxtail; [7]
  Foxtail, Giant plant response rating: 60
Giant foxtail; [8]
  Plant response rating, Foxtail, Giant: 70
Giant foxtail; [9]
  Foxtail, Giant plant response rating: 70
lambsquarters; [2]
  Lambsquarters plant response rating (0 to 100 scale): 0
lambsquarters; [3]
  Lambsquarters plant response rating: 40
lambsquarters; [5]
  Lambsquarters plant response rating: 60
morningglory; [2]
  Morningglory plant response rating (0 to 100 scale): 0
morningglory; [3]
  Morningglory plant response rating: 50
morningglory; [4]
  Plant response rating, Morningglory: 20
morningglory; [5]
  Morningglory plant response rating: 100
pigweed; [2]
  Pigweed plant response rating (0 to 100 scale): 0
pigweed; [3]
  Pigweed plant response rating: 100
pigweed; [5]
  Pigweed plant response rating: 100
velvetleaf; [3]
  Velvetleaf plant response rating: 70
velvetleaf; [4]
  Plant response rating, Velvetleaf: 60
velvetleaf; [5]
  Velvetleaf plant response rating: 100
blackgrass; [7]
  Blackgrass plant response rating: 30
blackgrass; [9]
  Blackgrass plant response rating: 40
wheat; [3]
  Wheat plant response rating: 20
wheat; [5]
  Wheat plant response rating: 30
Wild oat; [3]
  Oat, Wild plant response rating: 40
Wild oat; [5]
  Oat, Wild plant response rating: 50
rice
  Rice plant response rating: 50
[1]
  Sedge, Umbrella plant response rating: 80
ducksalad
  Ducksalad plant response rating: 70
barnyardgrass
  Barnyardgrass plant response rating: 60

## CCn1nc(C(C)(C)C)cc1C(=O)Nc1cc(C(=O)NCC2CC2)ccn1 [Compound 155]
Surinam grass; [10]
  Plant response rating, Surinam Grass: 50
Surinam grass; [11]
  Surinam Grass plant response rating: 20
Surinam grass; [12]
  Surinam Grass plant response rating: 30
Surinam grass; [13]
  Plant response rating, Surinam Grass: 10
cocklebur; [14]
  Plant response rating, Cocklebur: 30
cocklebur; [15]
  Cocklebur plant response rating: 60
cocklebur; [16]
  Cocklebur plant response rating: 80
cocklebur; [17]
  Plant response rating, Cocklebur: 0
corn; [14]
  Plant response rating, Corn: 30
corn; [15]
  Corn plant response rating: 10
corn; [16]
  Corn plant response rating: 20
corn; [17]
  Plant response rating, Corn: 0
Giant foxtail; [14]
  Plant response rating, Foxtail, Giant: 90
Giant foxtail; [15]
  Foxtail, Giant plant response rating: 20
Giant foxtail; [16]
  Foxtail, Giant plant response rating: 30
Giant foxtail; [17]
  Plant response rating, Foxtail, Giant: 20
lambsquarters; [10]
  Plant response rating, Lambsquarters: 100
lambsquarters; [11]
  Lambsquarters plant response rating: 70
lambsquarters; [12]
  Lambsquarters plant response rating: 90
lambsquarters; [13]
  Plant response rating, Lambsquarters: 100
morningglory; [10]
  Plant response rating, Morningglory: 40
morningglory; [11]
  Morningglory plant response rating: 30
morningglory; [12]
  Morningglory plant response rating: 60
morningglory; [13]
  Plant response rating, Morningglory: 20
pigweed; [10]
  Plant response rating, Pigweed: 100
pigweed; [11]
  Pigweed plant response rating: 60
pigweed; [12]
  Pigweed plant response rating: 100
pigweed; [13]
  Plant response rating, Pigweed: 100
velvetleaf; [10]
  Plant response rating, Velvetleaf: 70
velvetleaf; [11]
  Velvetleaf plant response rating: 20
velvetleaf; [12]
  Velvetleaf plant response rating: 70
velvetleaf; [13]
  Plant response rating, Velvetleaf: 20
blackgrass; [15]
  Blackgrass plant response rating: 40
blackgrass; [16]
  Blackgrass plant response rating: 50
wheat; [12]
  Wheat plant response rating: 20
Wild oat; [11]
  Oat, Wild plant response rating: 40
Wild oat; [12]
  Oat, Wild plant response rating: 50
rice; visual rating, 13 to 15 days
  Rice plant response rating: 20
[1]; visual rating, 13 to 15 days
  Sedge, Umbrella plant response rating: 90
ducksalad; visual rating, 13 to 15 days
  Ducksalad plant response rating: 100
barnyardgrass; visual rating, 13 to 15 days
  Barnyardgrass plant response rating: 70

## CCc1nn(C(C)C)nc1C(=O)Nc1cccc(C(=O)N2CCCCC2)c1 [Compound 385]
Surinam grass; [18]
  Plant response rating (0 to 100 scale), Surinam Grass: 80
Surinam grass; [3]
  Surinam Grass plant response rating: 0
Surinam grass; [19]
  Surinam Grass plant response rating: 20
cocklebur; [20]
  Plant response rating (0 to 100 scale), Cocklebur: 0
cocklebur; [7]
  Cocklebur plant response rating: 20
cocklebur; [9]
  Cocklebur plant response rating: 50
corn; [20]
  Plant response rating (0 to 100 scale), Corn: 30
corn; [7]
  Corn plant response rating: 10
corn; [9]
  Corn plant response rating: 10
Giant foxtail; [20]
  Plant response rating (0 to 100 scale), Foxtail, Giant: 30
Giant foxtail; [7]
  Foxtail, Giant plant response rating: 10
Giant foxtail; [9]
  Foxtail, Giant plant response rating: 20
lambsquarters; [18]
  Plant response rating (0 to 100 scale), Lambsquarters: 90
lambsquarters; [3]
  Lambsquarters plant response rating: 50
lambsquarters; [19]
  Lambsquarters plant response rating: 60
morningglory; [18]
  Plant response rating (0 to 100 scale), Morningglory: 20
morningglory; [3]
  Morningglory plant response rating: 30
morningglory; [19]
  Morningglory plant response rating: 80
pigweed; [18]
  Plant response rating (0 to 100 scale), Pigweed: 70
pigweed; [3]
  Pigweed plant response rating: 50
pigweed; [19]
  Pigweed plant response rating: 60
velvetleaf; [18]
  Plant response rating (0 to 100 scale), Velvetleaf: 60
velvetleaf; [3]
  Velvetleaf plant response rating: 20
velvetleaf; [19]
  Velvetleaf plant response rating: 20
blackgrass; [7]
  Blackgrass plant response rating: 10
blackgrass; [9]
  Blackgrass plant response rating: 30
wheat; [3]
  Wheat plant response rating: 0
wheat; 500 g ai/ha, scale 0 to 100, 0 no effect, 100 complete control, preemergence
  Wheat plant response rating: 80
wheat; [19]
  Wheat plant response rating: 10
Wild oat; [3]
  Oat, Wild plant response rating: 0
Wild oat; [19]
  Oat, Wild plant response rating: 20
rice
  Rice plant response rating: 80
[1]
  Sedge, Umbrella plant response rating: 80
ducksalad
  Ducksalad plant response rating: 80
barnyardgrass
  Barnyardgrass plant response rating: 80

## CCN1N=C(C(C)(C)C)CC1C(=O)Nc1cc(C(=O)N2CC=CC2)ccc1F (racemic) [Compound 310]
Surinam grass; [2]
  Surinam Grass plant response rating (0 to 100 scale): 30
Surinam grass; [3]
  Surinam Grass plant response rating: 10
Surinam grass; [4]
  Plant response rating, Surinam Grass: 70
Surinam grass; [5]
  Surinam Grass plant response rating: 20
cocklebur; [6]
  Cocklebur plant response rating (0 to 100 scale): 10
cocklebur; [7]
  Cocklebur plant response rating: 0
cocklebur; [8]
  Plant response rating, Cocklebur: 50
cocklebur; [9]
  Cocklebur plant response rating: 20
corn; [6]
  Corn plant response rating (0 to 100 scale): 40
corn; [7]
  Corn plant response rating: 0
corn; [8]
  Plant response rating, Corn: 70
corn; [9]
  Corn plant response rating: 20
Giant foxtail; [6]
  Foxtail, Giant plant response rating (0 to 100 scale): 50
Giant foxtail; [7]
  Foxtail, Giant plant response rating: 10
Giant foxtail; [8]
  Plant response rating, Foxtail, Giant: 100
Giant foxtail; [9]
  Foxtail, Giant plant response rating: 40
lambsquarters; [2]
  Lambsquarters plant response rating (0 to 100 scale): 100
lambsquarters; [3]
  Lambsquarters plant response rating: 60
lambsquarters; [4]
  Plant response rating, Lambsquarters: 100
lambsquarters; [5]
  Lambsquarters plant response rating: 80
morningglory; [2]
  Morningglory plant response rating (0 to 100 scale): 0
morningglory; [3]
  Morningglory plant response rating: 0
morningglory; [4]
  Plant response rating, Morningglory: 10
morningglory; [5]
  Morningglory plant response rating: 50
pigweed; [2]
  Pigweed plant response rating (0 to 100 scale): 80
pigweed; [3]
  Pigweed plant response rating: 50
pigweed; [4]
  Plant response rating, Pigweed: 100
pigweed; [5]
  Pigweed plant response rating: 70
velvetleaf; [3]
  Velvetleaf plant response rating: 20
velvetleaf; [4]
  Plant response rating, Velvetleaf: 100
velvetleaf; [5]
  Velvetleaf plant response rating: 50
blackgrass; [7]
  Blackgrass plant response rating: 10
blackgrass; [9]
  Blackgrass plant response rating: 30
wheat; [3]
  Wheat plant response rating: 10
wheat; [5]
  Wheat plant response rating: 20
Wild oat; [3]
  Oat, Wild plant response rating: 30
Wild oat; [5]
  Oat, Wild plant response rating: 40
rice
  Rice plant response rating: 80
[1]
  Sedge, Umbrella plant response rating: 80
ducksalad
  Ducksalad plant response rating: 90
barnyardgrass
  Barnyardgrass plant response rating: 90
